The record followed here is ChEMBL document CHEMBL1201862, “PubChem BioAssay data set” (2004).

Test systems include SNB-75; IGROV-1; M14; SK-MEL-2; MOLT-4; HT-29; DU-145; SF-295; SF-268; OVCAR-3; ACHN; HL-60; Hs-578T; SW-620; SK-MEL-28; LOX IMVI; MDA-N; MCF7; RPMI-8226; KM12.
Holding throughout (assay): inhibition of tumour cell growth, NCI panel, 48 h

SMILES strings stand for the structures.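 Briefly, cells in 96-well plates were exposed to five compound concentrations for 48 h, and endpoints were estimated by linear interpolation. GI50: concentration for 50% inhibition of growth.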 The source made the active and inactive calls. Rule as the data show it: active = GI50 up to about 1.1 µM and inactive = higher. Some results are limits rather than exact numbers.

In the case of `Nc1ncnc2c1ccn2C/C=C/CO`, the GI50 with SNB-75, in the assay with IGROV-1, with M14, in the assay on SK-MEL-2, in the assay with MOLT-4 and with HT-29 was > 100 µM (inactive) throughout. Moreover, the GI50 with DU-145, in the assay with SF-295, in the assay with SF-268, in the assay with OVCAR-3, with ACHN and in the assay with HL-60 was > 100 µM (inactive) in each case. The GI50 in the assay with Hs-578T, with SW-620, in the assay with SK-MEL-28, with LOX IMVI, in the assay with MDA-N and in the assay with MCF7 was > 100 µM (inactive) in each case. The GI50 in the assay with RPMI-8226 and in the assay with KM12 was > 100 µM (inactive) each time.

Consider `CC(=N\N=C\c1ccccn1)/C(C)=N/N=C/c1ccccn1`, for which the GI50 in the assay on SNB-75 was > 100 µM (inactive); with IGROV-1, > 100 µM (inactive); with M14, > 100 µM (inactive); in the assay on SK-MEL-2, > 100 µM (inactive); with MOLT-4, > 10 µM (inactive); in the assay with HT-29 it was > 100 µM (inactive). Moreover, the GI50 in the assay on DU-145, in the assay with SF-295, in the assay on SF-268, with OVCAR-3, in the assay with ACHN and with HL-60 was > 100 µM (inactive) throughout. The GI50 with Hs-578T was > 100 µM (inactive); in the assay on SW-620, > 100 µM (inactive); in the assay with SK-MEL-28, > 100 µM (inactive); in the assay on LOX IMVI, > 100 µM (inactive); in the assay on MDA-N, 51.6 µM (inactive); in the assay on MCF7, 89.7 µM (inactive). The GI50 in the assay with RPMI-8226 and in the assay on KM12 was > 100 µM (inactive) each time.

Regarding `Cc1c(C(=O)c2ccccc2)[n+]([O-])c2cc(Cl)c(Cl)cc2[n+]1[O-]`, the GI50 in the assay on SNB-75 was 0.0368 µM (active); in the assay on IGROV-1, 1.97 µM (inactive); in the assay on M14, 2.87 µM (inactive); in the assay on SK-MEL-2 it was 5.92 µM (inactive); in the assay with MOLT-4, 2.73 µM (inactive); in the assay on HT-29, 14.4 µM (inactive). Also, the GI50 in the assay on DU-145 is 16.1 µM (inactive); in the assay with SF-295, 14.9 µM (inactive); in the assay with SF-268, 15.3 µM (inactive); in the assay on OVCAR-3, 12.4 µM (inactive); in the assay on ACHN, 14.3 µM (inactive); in the assay with HL-60, 2.04 µM (inactive). For the same compound, the GI50 is 6.34 µM (inactive) in the assay on Hs-578T; 14.7 µM (inactive) in the assay on SK-MEL-28; 3.72 µM (inactive) in the assay with LOX IMVI; 12.3 µM (inactive) in the assay with MDA-N; 10.7 µM (inactive) in the assay with MCF7; 4.7 µM (inactive) with RPMI-8226. Further, the GI50 in the assay with KM12 was 8.65 µM (inactive).

As to `COc1cccc(/C=C/C2=NN(c3cccc(S(=O)(=O)O)c3)C3(C2)SCC(=O)N3c2nc3ccccc3s2)c1` (configuration not stated), the GI50 in the assay with SNB-75 was 74.6 µM (inactive); with IGROV-1 it was 36.7 µM (inactive); in the assay on M14 it was 80.9 µM (inactive); in the assay on SK-MEL-2, 44.8 µM (inactive); with MOLT-4, 28.2 µM (inactive); in the assay with HT-29 it was 64.7 µM (inactive). The GI50 in the assay with DU-145 is 30.6 µM (inactive); with SF-268 it was 33.3 µM (inactive); in the assay with ACHN, 51.8 µM (inactive); with HL-60 it was 26.7 µM (inactive); in the assay on Hs-578T, 32.7 µM (inactive); with SW-620, 47.9 µM (inactive). For the same compound, the GI50 is > 100 µM (inactive) in the assay on SK-MEL-28; 21.1 µM (inactive) in the assay with LOX IMVI; 62.7 µM (inactive) in the assay with MDA-N; 27.6 µM (inactive) in the assay with MCF7; 22.5 µM (inactive) in the assay on RPMI-8226; 32 µM (inactive) with KM12.

`CC(C)(C)OC(=O)NCCCC(=O)NC1(c2cc3ccccc3s2)CCCCC1`: the GI50 with SNB-75 is 5.11 µM (inactive); in the assay with IGROV-1 it was 18 µM (inactive); in the assay with M14, 18 µM (inactive); with MOLT-4, 14.6 µM (inactive); in the assay on HT-29, 13.1 µM (inactive); in the assay on DU-145 it was 24.8 µM (inactive). The GI50 is 16.6 µM (inactive) in the assay on SF-295; 17.9 µM (inactive) in the assay on SF-268; 16.3 µM (inactive) with OVCAR-3; 22.8 µM (inactive) with ACHN; 6.76 µM (inactive) with HL-60; 24.6 µM (inactive) with Hs-578T. For the same compound, the GI50 in the assay on SW-620 is 15.8 µM (inactive); with SK-MEL-28, 14.1 µM (inactive); with LOX IMVI, 16 µM (inactive); with MDA-N, 15.8 µM (inactive); in the assay with MCF7, 16.3 µM (inactive); in the assay with RPMI-8226, 11.7 µM (inactive). The GI50 in the assay on KM12 is 17 µM (inactive).

As to `Cc1cc(=O)oc2cc(OS(C)(=O)=O)ccc12`, the GI50 with SNB-75, in the assay with IGROV-1, in the assay with M14, in the assay with SK-MEL-2, with HT-29 and with DU-145 was > 100 µM (inactive) each time. For the same compound, the GI50 with SF-295, in the assay with SF-268, in the assay with OVCAR-3, in the assay on ACHN, in the assay on HL-60 and in the assay on Hs-578T was > 100 µM (inactive) throughout. For the same compound, the GI50 in the assay with SW-620, in the assay with SK-MEL-28, in the assay on LOX IMVI, in the assay with MDA-N, with MCF7 and with RPMI-8226 was > 100 µM (inactive) throughout.

As to `O=C(c1ccc(Cl)cc1)N(C(=S)OCCOc1ccccc1)c1ccccc1`, the GI50 with IGROV-1 is 16.9 µM (inactive); with M14, 16.1 µM (inactive); in the assay on SK-MEL-2, 22.1 µM (inactive); in the assay with MOLT-4, 22.4 µM (inactive); in the assay with HT-29, 17.6 µM (inactive); in the assay with DU-145, 17.3 µM (inactive). In addition, the GI50 in the assay with SF-295 is 27.6 µM (inactive); in the assay on SF-268, 25.1 µM (inactive); in the assay on OVCAR-3 it was 17.2 µM (inactive); in the assay with ACHN it was 20.3 µM (inactive); in the assay on HL-60 it was 18.6 µM (inactive); with Hs-578T, 46.9 µM (inactive). Moreover, the GI50 with SW-620 is 19.1 µM (inactive); in the assay on SK-MEL-28, 15.8 µM (inactive); in the assay on LOX IMVI, 17.4 µM (inactive); in the assay on MDA-N, 16.6 µM (inactive); with MCF7, 16.1 µM (inactive); with RPMI-8226 it was 18.1 µM (inactive). Besides, the GI50 in the assay with KM12 was 19.1 µM (inactive).

Turning to `CN(C(=O)Cc1cc(Cl)c(Cl)cc1NC(=O)CN)[C@H]1CCCC[C@@H]1N1CCCC1`, the GI50 was 20.7 µM (inactive) in the assay on SNB-75; > 100 µM (inactive) with IGROV-1; 18.2 µM (inactive) in the assay on M14; 18.8 µM (inactive) in the assay with SK-MEL-2; > 100 µM (inactive) with MOLT-4; 20.7 µM (inactive) in the assay on HT-29. Also, the GI50 was > 100 µM (inactive) in the assay with DU-145; 24.2 µM (inactive) with SF-295; 77.1 µM (inactive) in the assay on SF-268; 38.8 µM (inactive) with OVCAR-3; 79.8 µM (inactive) in the assay on ACHN; 19.1 µM (inactive) in the assay on HL-60. The GI50 in the assay with Hs-578T was 23.1 µM (inactive); in the assay on SW-620, 62.7 µM (inactive); in the assay on LOX IMVI, 18.3 µM (inactive); in the assay with MDA-N, 15.3 µM (inactive); with MCF7, 28.6 µM (inactive); in the assay on RPMI-8226, 30.8 µM (inactive). For the same compound, in the assay on KM12, the GI50 was 47.4 µM (inactive).

As to `C[n+]1c2ccccc2n2c3ccccc3c(NCCCN3CCOCC3)c(C#N)c21`, the GI50 is 2.23 µM (inactive) in the assay with SNB-75; 2.4 µM (inactive) with M14; 1.91 µM (inactive) in the assay on SK-MEL-2; 0.498 µM (active) in the assay with MOLT-4; 2.37 µM (inactive) in the assay with HT-29; 2.13 µM (inactive) in the assay with DU-145. The GI50 was 2.8 µM (inactive) with SF-295; 1.11 µM (active) with SF-268; 2.61 µM (inactive) with OVCAR-3; 2.61 µM (inactive) in the assay with ACHN; 8.13 µM (inactive) in the assay with HL-60; 1.41 µM (inactive) in the assay on Hs-578T. Also, the GI50 is 0.849 µM (active) with SW-620; 3.32 µM (inactive) in the assay with SK-MEL-28; 0.839 µM (active) in the assay on LOX IMVI; 1.04 µM (active) in the assay with MDA-N; 0.564 µM (active) in the assay with MCF7; 0.726 µM (active) in the assay on RPMI-8226. Besides, in the assay on KM12, the GI50 was 1.61 µM (inactive).

For the compound `O=C1c2ccccc2C2(c3ccc(Cl)cc3)N[C@@H]3CCCC[C@@H]3N12` (some centres not stated), the GI50 with SNB-75, with IGROV-1, with M14, in the assay with SK-MEL-2, with MOLT-4 and with DU-145 was > 100 µM (inactive) throughout. Besides, the GI50 in the assay with SF-295 is > 100 µM (inactive); with SF-268, > 100 µM (inactive); in the assay with OVCAR-3, > 100 µM (inactive); in the assay on ACHN, > 100 µM (inactive); in the assay on HL-60, 50.1 µM (inactive); in the assay on Hs-578T it was > 100 µM (inactive). Moreover, the GI50 in the assay with SW-620, in the assay on SK-MEL-28, in the assay with LOX IMVI, in the assay on MDA-N, in the assay on MCF7 and in the assay with RPMI-8226 was > 100 µM (inactive) throughout. In the assay with KM12, the GI50 was > 100 µM (inactive).

For `CCCCCCN1CCc2c(C)c(C#N)c3nc4ccccc4n3c21`, the GI50 is 32.4 µM (inactive) in the assay with SNB-75; > 100 µM (inactive) in the assay with IGROV-1; 63.5 µM (inactive) in the assay on M14; 22.2 µM (inactive) in the assay on SK-MEL-2; 18.5 µM (inactive) with HT-29; > 100 µM (inactive) with DU-145. Besides, the GI50 is > 100 µM (inactive) in the assay on SF-295; > 100 µM (inactive) in the assay with SF-268; 11.6 µM (inactive) in the assay on OVCAR-3; > 100 µM (inactive) with ACHN; 11.7 µM (inactive) in the assay with HL-60; 8.73 µM (inactive) in the assay on Hs-578T. Moreover, the GI50 in the assay on SW-620 was 23.2 µM (inactive); in the assay on SK-MEL-28, 33.7 µM (inactive); with LOX IMVI, 22.2 µM (inactive); in the assay on MDA-N, 22.7 µM (inactive); with MCF7, 14.5 µM (inactive).
